Data taken from patent US20250084061A1, “SULFONYL FUNCTIONAL COMPOUND, METHODS AND USES THEREOF” (Hubei Biopesticide Engineering Research Centre, priority 2023, published 2025).

Legend:
Format in all cases: in vivo
[1] = test system: Heliothis armigera; test: Insecticidal activity, artificial feed surface coating method
Protocol: (§1) The insecticidal activity of sulfonyl functional compounds in the above embodiments were tested for agricultural biological functions, and the targets of insecticidal activity were Heliothis armigera, Plutella xylostella and Aphiscraccivora.
(§2) Using Heliothis armigera and Plutella xylostella as target, the insecticidal activities of sulfonyl functional compounds were tested by conventional artificial feed surface coating method. 300 microliters of artificial feed and 20 microliters of test solution were added to each well of the 24-well cell culture plate. The test solution was used in different concentrations and repeated twice (Rep1 and Rep2). The concentrations of the test solution were 500 mg/L, 250 mg/L and 125 mg/L, respectively.
(§3) The insecticidal activity of sulfonyl functional compounds against Aphiscraccivora was tested by the method of dipping. Mother liquors were prepared by the sulfonyl functional compounds provided in the above embodiments dissolved in ethanol, respectively. 500 mg/L, 250 mg/L or 125 mg/L test solution could be prepared by diluting the different mother liquors with a liquor that contained 0.1 mL/L of emulgator (Tween-80). Every test solution was tested twice (Rep1 and Rep2). A blank control was set up, and the activity results were compared with the blank control. The mortality rate of 0˜30%, 30˜50%, 50-70%, 70˜90%, or 90˜100% could be orderly set as 0, 3, 5, 7, or 9.

[2] = test system: Plutella xylostella; test: as above
Protocol: as §1, §2, §3

[3] = test system: Aphiscraccivora; test: Insecticidal activity, dipping method
Protocol: as §1, §3

CC1=NNC(=O)N(N=Cc2ccc[n+](CC=CS(=O)(=O)[O-])c2)C1 [IV-2]
Insecticidal activity (mortality rate grade) Heliothis armigera ([1]; 125 mg/L test solution): 0 (mortality rate of 0˜30%) | Insecticidal activity (mortality rate grade) Heliothis armigera ([1]; 250 mg/L test solution): 0 (mortality rate of 0˜30%) | Insecticidal activity (mortality rate grade) Heliothis armigera ([1]; 500 mg/L test solution): 0 (mortality rate of 0˜30%) | Insecticidal activity (mortality rate grade) Plutella xylostella ([2]; 125 mg/L test solution): 0 (mortality rate of 0˜30%) | Insecticidal activity (mortality rate grade) Plutella xylostella ([2]; 250 mg/L test solution): 3 (30˜50%) | Insecticidal activity (mortality rate grade) Plutella xylostella ([2]; 500 mg/L test solution): 5 (50-70%) | Insecticidal activity (mortality rate grade) Aphiscraccivora ([3]; 125 mg/L test solution): 7 (70˜90%) | Insecticidal activity (mortality rate grade) Aphiscraccivora ([3]; 250 mg/L test solution): 9 (90˜100%) | Insecticidal activity (mortality rate grade) Aphiscraccivora ([3]; 500 mg/L test solution): 9 (90˜100%)

CC1=NNC(=O)N(N=Cc2ccc[n+](CCCCS(=O)(=O)[O-])c2)C1 [IV-3]
Insecticidal activity (mortality rate grade) Heliothis armigera ([1]; 125 mg/L test solution): 0 (mortality rate of 0˜30%) | Insecticidal activity (mortality rate grade) Heliothis armigera ([1]; 250 mg/L test solution): 0 (mortality rate of 0˜30%) | Insecticidal activity (mortality rate grade) Heliothis armigera ([1]; 500 mg/L test solution): 3 (30˜50%) | Insecticidal activity (mortality rate grade) Plutella xylostella ([2]; 125 mg/L test solution): 0 (mortality rate of 0˜30%) | Insecticidal activity (mortality rate grade) Plutella xylostella ([2]; 250 mg/L test solution): 3 (30˜50%) | Insecticidal activity (mortality rate grade) Plutella xylostella ([2]; 500 mg/L test solution): 3 (30˜50%) | Insecticidal activity (mortality rate grade) Aphiscraccivora ([3]; 125 mg/L test solution): 9 (90˜100%) | Insecticidal activity (mortality rate grade) Aphiscraccivora ([3]; 250 mg/L test solution): 9 (90˜100%) | Insecticidal activity (mortality rate grade) Aphiscraccivora ([3]; 500 mg/L test solution): 9 (90˜100%)

CC(=O)N1N=C(C)CN(N=Cc2ccc[n+](CCCS(=O)(=O)[O-])c2)C1=O [IV-4]
Insecticidal activity (mortality rate grade) Heliothis armigera ([1]; 125 mg/L test solution): 0 (mortality rate of 0˜30%) | Insecticidal activity (mortality rate grade) Heliothis armigera ([1]; 250 mg/L test solution): 3 (30˜50%) | Insecticidal activity (mortality rate grade) Heliothis armigera ([1]; 500 mg/L test solution): 5 (50-70%) | Insecticidal activity (mortality rate grade) Plutella xylostella ([2]; 125 mg/L test solution): 3 (30˜50%) | Insecticidal activity (mortality rate grade) Plutella xylostella ([2]; 250 mg/L test solution): 5 (50-70%) | Insecticidal activity (mortality rate grade) Plutella xylostella ([2]; 500 mg/L test solution): 5 (50-70%) | Insecticidal activity (mortality rate grade) Aphiscraccivora ([3]; 125 mg/L test solution): 9 (90˜100%) | Insecticidal activity (mortality rate grade) Aphiscraccivora ([3]; 250 mg/L test solution): 9 (90˜100%) | Insecticidal activity (mortality rate grade) Aphiscraccivora ([3]; 500 mg/L test solution): 9 (90˜100%)

CCC(=O)N1N=C(C)CN(N=Cc2ccc[n+](CCCS(=O)(=O)[O-])c2)C1=O [IV-5]
Insecticidal activity (mortality rate grade) Heliothis armigera ([1]; 125 mg/L test solution): 0 (mortality rate of 0˜30%) | Insecticidal activity (mortality rate grade) Heliothis armigera ([1]; 250 mg/L test solution): 0 (mortality rate of 0˜30%) | Insecticidal activity (mortality rate grade) Heliothis armigera ([1]; 500 mg/L test solution): 0 (mortality rate of 0˜30%) | Insecticidal activity (mortality rate grade) Plutella xylostella ([2]; 125 mg/L test solution): 0 (mortality rate of 0˜30%) | Insecticidal activity (mortality rate grade) Plutella xylostella ([2]; 250 mg/L test solution): 0 (mortality rate of 0˜30%) | Insecticidal activity (mortality rate grade) Plutella xylostella ([2]; 500 mg/L test solution): 3 (30˜50%) | Insecticidal activity (mortality rate grade) Aphiscraccivora ([3]; 125 mg/L test solution): 7 (70˜90%) | Insecticidal activity (mortality rate grade) Aphiscraccivora ([3]; 250 mg/L test solution): 7 (70˜90%) | Insecticidal activity (mortality rate grade) Aphiscraccivora ([3]; 500 mg/L test solution): 9 (90˜100%)

CC(=O)N1N=C(C)CN(N=Cc2ccc[n+](CC=CS(=O)(=O)[O-])c2)C1=O [IV-6]
Insecticidal activity (mortality rate grade) Heliothis armigera ([1]; 125 mg/L test solution): 0 (mortality rate of 0˜30%) | Insecticidal activity (mortality rate grade) Heliothis armigera ([1]; 250 mg/L test solution): 3 (30˜50%) | Insecticidal activity (mortality rate grade) Heliothis armigera ([1]; 500 mg/L test solution): 3 (30˜50%) | Insecticidal activity (mortality rate grade) Plutella xylostella ([2]; 125 mg/L test solution): 0 (mortality rate of 0˜30%) | Insecticidal activity (mortality rate grade) Plutella xylostella ([2]; 250 mg/L test solution): 3 (30˜50%) | Insecticidal activity (mortality rate grade) Plutella xylostella ([2]; 500 mg/L test solution): 5 (50-70%) | Insecticidal activity (mortality rate grade) Aphiscraccivora ([3]; 125 mg/L test solution): 5 (50-70%) | Insecticidal activity (mortality rate grade) Aphiscraccivora ([3]; 250 mg/L test solution): 9 (90˜100%) | Insecticidal activity (mortality rate grade) Aphiscraccivora ([3]; 500 mg/L test solution): 9 (90˜100%)

CCC(=O)N1N=C(C)CN(N=Cc2ccc[n+](CC=CS(=O)(=O)[O-])c2)C1=O [IV-7]
Insecticidal activity (mortality rate grade) Heliothis armigera ([1]; 125 mg/L test solution): 0 (mortality rate of 0˜30%) | Insecticidal activity (mortality rate grade) Heliothis armigera ([1]; 250 mg/L test solution): 0 (mortality rate of 0˜30%) | Insecticidal activity (mortality rate grade) Heliothis armigera ([1]; 500 mg/L test solution): 0 (mortality rate of 0˜30%) | Insecticidal activity (mortality rate grade) Plutella xylostella ([2]; 125 mg/L test solution): 0 (mortality rate of 0˜30%) | Insecticidal activity (mortality rate grade) Plutella xylostella ([2]; 250 mg/L test solution): 0 (mortality rate of 0˜30%) | Insecticidal activity (mortality rate grade) Plutella xylostella ([2]; 500 mg/L test solution): 3 (30˜50%) | Insecticidal activity (mortality rate grade) Aphiscraccivora ([3]; 125 mg/L test solution): 5 (50-70%) | Insecticidal activity (mortality rate grade) Aphiscraccivora ([3]; 250 mg/L test solution): 7 (70˜90%) | Insecticidal activity (mortality rate grade) Aphiscraccivora ([3]; 500 mg/L test solution): 9 (90˜100%)

CC(=O)N1N=C(C)CN(N=Cc2ccc[n+](CCCCS(=O)(=O)[O-])c2)C1=O [IV-8]
Insecticidal activity (mortality rate grade) Heliothis armigera ([1]; 125 mg/L test solution): 0 (mortality rate of 0˜30%) | Insecticidal activity (mortality rate grade) Heliothis armigera ([1]; 250 mg/L test solution): 0 (mortality rate of 0˜30%) | Insecticidal activity (mortality rate grade) Heliothis armigera ([1]; 500 mg/L test solution): 0 (mortality rate of 0˜30%) | Insecticidal activity (mortality rate grade) Plutella xylostella ([2]; 125 mg/L test solution): 0 (mortality rate of 0˜30%) | Insecticidal activity (mortality rate grade) Plutella xylostella ([2]; 250 mg/L test solution): 3 (30˜50%) | Insecticidal activity (mortality rate grade) Plutella xylostella ([2]; 500 mg/L test solution): 3 (30˜50%) | Insecticidal activity (mortality rate grade) Aphiscraccivora ([3]; 125 mg/L test solution): 9 (90˜100%) | Insecticidal activity (mortality rate grade) Aphiscraccivora ([3]; 250 mg/L test solution): 9 (90˜100%) | Insecticidal activity (mortality rate grade) Aphiscraccivora ([3]; 500 mg/L test solution): 9 (90˜100%)

CCC(=O)N1N=C(C)CN(N=Cc2ccc[n+](CCCCS(=O)(=O)[O-])c2)C1=O [IV-9]
Insecticidal activity (mortality rate grade) Heliothis armigera ([1]; 125 mg/L test solution): 0 (mortality rate of 0˜30%) | Insecticidal activity (mortality rate grade) Heliothis armigera ([1]; 250 mg/L test solution): 0 (mortality rate of 0˜30%) | Insecticidal activity (mortality rate grade) Heliothis armigera ([1]; 500 mg/L test solution): 0 (mortality rate of 0˜30%) | Insecticidal activity (mortality rate grade) Plutella xylostella ([2]; 125 mg/L test solution): 0 (mortality rate of 0˜30%) | Insecticidal activity (mortality rate grade) Plutella xylostella ([2]; 250 mg/L test solution): 0 (mortality rate of 0˜30%) | Insecticidal activity (mortality rate grade) Plutella xylostella ([2]; 500 mg/L test solution): 3 (30˜50%) | Insecticidal activity (mortality rate grade) Aphiscraccivora ([3]; 125 mg/L test solution): 7 (70˜90%) | Insecticidal activity (mortality rate grade) Aphiscraccivora ([3]; 250 mg/L test solution): 7 (70˜90%) | Insecticidal activity (mortality rate grade) Aphiscraccivora ([3]; 500 mg/L test solution): 9 (90˜100%)
